Assay results reported in PubChem BioAssay AID624344 (Sanford-Burnham Center for Chemical Genomics, 2012).
Activity calls are given as the source filed them. No rule for the calls is given here.

What was measured:
[1] = inhibitors of PAF-induced NFkB signaling in CF airway cells, dose response, cell-based, uHTS hits, panel, cytotoxicity readout (AID 624344); conditions: CF bronchial epithelial cells, PAF-induced NFkB reporter inhibition; with PAF, mean of runs
Cytotoxicity = test: as above; conditions: CF bronchial epithelial cells, mean of runs

Structure (SMILES) | IC50 [1] | IC50 (Cytotoxicity)
CCC1(O)C(=O)OCc2c1cc1n(c2=O)Cc2cc3cc(O)ccc3nc2-1 (configuration not stated) | 0.284 µM | 1.09 µM
COc1ccc(OC)c(N(CCN2C(=O)c3ccccc3C2=O)C(=O)CCl)c1 | 4.03 µM | 4.33 µM
CN(C)CCCN(C(=O)CCOc1ccccc1)c1nc2ccc(F)cc2s1 | 2.53 µM | 12.7 µM
O=C1CC(=O)OC(c2ccc([N+](=O)[O-])cc2)O1 | 2.59 µM | 1.79 µM
O=C(Nc1ccc([N+](=O)[O-])cc1)Nc1ccc(Cl)cc1F | 2.92 µM | 2.19 µM
O=C1OC(Nc2nc(-c3ccc(F)cc3)cs2)c2ccccc21 (configuration not stated) | 2.31 µM | 10.7 µM
COc1cc(-c2cc(C(=O)Nc3ccc(S(=O)(=O)NCc4ccco4)cc3)c3ccccc3n2)cc(OC)c1OC | 3.96 µM | 7.44 µM
CN(C)CCCN(C(=O)CCSc1ccccc1)c1nc2cc3c(cc2s1)OCO3 | 9.46 µM | 26.1 µM
C=C1C(=O)O[C@@]23[C@H]1CC[C@@H](C)[C@@H]2CC[C@@]1(C)O[C@@H]31 | 3.76 µM | 44.9 µM
CCOc1ccc(-n2c(C)c(C(C)=O)c3cc(OC(C)=O)ccc32)cc1 | 0.925 µM | 44.5 µM
C=C1C(C)C2C(Cc3ccccc3)NC(=O)C23OC(=O)/C=C/C(O)CCCC(C)C/C=C/C3C1O (configuration not stated) | 1.25 µM | 2.32 µM
CC(=O)Nc1ccc(Nc2nc(-c3sc(NC(C)=O)nc3C)cs2)cc1 | 1.69 µM | 28.4 µM
COc1ccc(-c2nc(NC(=O)c3ccc(OCC(=O)Nc4ccc(F)cc4)c(OC)c3)sc2C)cc1 | 4.72 µM | 16.6 µM
C=C1C(=O)OC2CC1C(O)CC(C)=CCCC(C)=CC(O)CC2C (configuration not stated) | 0.537 µM | 1.09 µM
O=C(c1[nH]c(C(F)(F)F)nc1-c1ccccc1)N1CCN(c2c(Cl)cncc2Cl)CC1 | 10.4 µM | > 79 µM (inactive)
CN(c1ncnc(N)c1[N+](=O)[O-])C1CCS(=O)(=O)C1 (configuration not stated) | 2.79 µM | > 79 µM (inactive)
COc1cc2c(c(OC)c1OC)-c1ccc(O)cc1C(NC(C)=O)CC2 (configuration not stated) | > 79 µM (inactive) | > 79 µM (inactive)
COc1ccc(-c2nc(N3CCOCC3)nc3n[nH]c(N)c23)cc1 | 6.92 µM | 9.47 µM
O=[N+]([O-])c1cc([N+](=O)[O-])c2oc(-c3ccccc3)c(Br)c2c1O | 2.3 µM | 4.56 µM
COc1ccc(/C=N/NC(=O)c2[nH]c3ccc(Br)cc3c2-c2ccccc2)cc1 | 9.3 µM | 27 µM
CCn1c(Oc2ccccc2F)nc2c1c(=O)n(C)c(=O)n2C | 3.57 µM | > 79 µM (inactive)
COc1cc(OC)cc(C(=O)N[C@H](C(=O)Nc2nc3ccccc3[nH]2)C(C)C)c1 | inactive | 41.1 µM
CCOc1ccccc1NC(=O)c1nc(S(=O)(=O)Cc2ccccc2)ncc1Cl | 1.83 µM | 2.27 µM
CCc1cc(-c2[nH]ncc2-c2ccc(OC)cc2)c(O)cc1O | 3.56 µM | 31 µM
CCc1nccn1C(=O)c1cnn2c(C(F)F)cc(-c3ccc(C)cc3)nc12 | 3.86 µM | 6.64 µM
NS(=O)(=O)c1ccc(CCNC(=O)c2ccc(C#CC3(O)CCCCC3)cc2)cc1 | 3.47 µM | 5.01 µM
c1cc2[nH]snc2c2nc(C3CC3)nc12 | 3.06 µM | 13.3 µM

Structure (SMILES) | IC50 [1] | IC50 (Cytotoxicity)
CC(=O)OC1(C)CC(C)C(=O)C(C(O)CC2CC(=O)NC(=O)C2)C1 (configuration not stated) | < 0.15 µM | 0.177 µM
O=C1N(c2ccccc2C(F)(F)F)O[C@@]1(c1ccccc1)C1CCCCC1 | 8.4 µM | > 79 µM (inactive)
CN(C)c1ccc(Nc2ncnc3ccc(Br)cc23)cc1 | 1.66 µM | 15.9 µM
CC(=O)Nc1ccc(NC(=O)C(C)OC(=O)c2ccccc2C(=O)c2ccc(Cl)c([N+](=O)[O-])c2)cc1 (configuration not stated) | 15.3 µM | 45.2 µM
Cc1ccc(NC(=O)c2nc[nH]c2C(=O)NCCCNC(=O)c2[nH]cnc2C(=O)Nc2ccc(C)cc2)cc1 | 3.82 µM | 14 µM
C[C@H](CO)N1C[C@H](C)[C@@H](CN(C)C(=O)Nc2ccc3c(c2)OCO3)Oc2c(NC(=O)Nc3ccc(C(F)(F)F)cc3)cccc2C1=O | 3.05 µM | 5.77 µM
C=CC[C@@H](CC/C=C/C=C/CC/C=C\[C@@H]1CSC([C@@H]2C[C@@H]2C)=N1)OC | inactive | 63 µM (inactive)
Cc1cccc(NC(=O)c2nc[nH]c2C(=O)NCCCNC(=O)c2[nH]cnc2C(=O)Nc2cccc(C)c2)c1 | 4.07 µM | 11.4 µM
COc1cccc(-c2cnc3c(NC=O)cc(-c4ccc(OC)cc4OC)cn23)c1 | 14.2 µM | 26 µM
COc1cccc(/C=N/n2c(C3CCCCC3)n[nH]c2=S)c1 | 3.97 µM | 33.7 µM
O=C(Nc1ccc(Cl)cc1)c1nc[nH]c1C(=O)NCCCCNC(=O)c1[nH]cnc1C(=O)Nc1ccc(Cl)cc1 | 1.05 µM | 1.11 µM
CC(C)(CO)CNc1ccn2nccc2n1 | 5.29 µM | 76.7 µM (inactive)
Cc1ccc(-c2cc(C(=O)N(C)Cc3cnn(C)c3C)c3cc(Br)ccc3n2)cc1 | 5.57 µM | 14.4 µM
COc1cccc(OC)c1C(=O)Nc1cc(C)nn1-c1nc2ccccc2[nH]1 | 3.77 µM | 10 µM
CC(C)c1ccccc1NC(=O)COC(=O)c1c2c(nc3ccccc13)CCN(Cc1ccccc1)C2 | 6.98 µM | 21.2 µM
CCOC(=O)Nc1nc(-c2ccccc2)c(C(=O)c2ccccc2)s1 | 14.3 µM | > 79 µM (inactive)
Cc1csc(CNc2ncnc3ccc(-c4ccoc4)cc23)c1 | < 0.3 µM | 13.8 µM
CC1(C)CC(=O)C=C(NC2=CC3OC(c4ccccc4)OCC3OC2=O)C1 (configuration not stated) | 3.35 µM | 16.9 µM
COc1ccc2ncn(-c3ccccc3)c2c1 | 5.47 µM | 60.6 µM (inactive)
Cc1ccc(S(=O)(=O)CC(CN2CCCCC2)N2CCCCC2)cc1 (configuration not stated) | 6.85 µM | 33.3 µM
C=C1C(=O)C23C(O)C1CCC2C12COC3(O)C(O)C1C(C)(C)CCC2O (configuration not stated) | 3.69 µM | 5.5 µM
CCN1CCN(Cc2ccc(NC(=O)c3ccc(C)c(NC(=O)c4cc(-c5ccc(Br)cc5)n[nH]4)c3)cc2C(F)(F)F)CC1 | 2.77 µM | 42.5 µM
CC(C)C[C@@H](CN1CCCC1CN1C(=S)NC[C@@H]1Cc1ccc(O)cc1)N1C[C@H](Cc2ccc(O)cc2)N(CC2CCCCC2)C1=S (some centres not stated) | 9.1 µM | 19.8 µM
COc1ccc(/C=C/C(=O)c2cc(F)ccc2OC(=O)c2ccccc2C)cc1OC | inactive | 62.5 µM (inactive)
O=C(Nc1cccnc1)c1sc2cccc(F)c2c1Cl | 12.1 µM | 43 µM
Cc1cc(N2CCOCC2)c2c(N)c(Br)cc(C)c2n1 | 0.729 µM | 20 µM
COc1ccc(S(=O)(=O)N2c3ccc(F)cc3CCC2C)cc1 (configuration not stated) | inactive | > 79 µM (inactive)

Structure (SMILES) | IC50 [1] | IC50 (Cytotoxicity)
Cc1ccc(S(=O)(=O)n2cc(-c3ccccc3)c3ccccc32)cc1 | 5.53 µM | > 79 µM (inactive)
Cc1ccc(NC(=O)Nc2nnc(-c3ccncc3)s2)cc1C | 3.46 µM | 9.39 µM
CC(=O)N1CC(=O)N=C1SCC(=O)Nc1nc(C)c(-c2ccccc2)s1 | 9.21 µM | 59.7 µM (inactive)
CC(=O)c1c(O)cc(O)c(C(C)=O)c1O | 5.34 µM | 5.8 µM
CCOc1cc2c(cc1O)C(=NOC)CC1C2CCC2(C)C(O)CCC12 (configuration not stated) | 7.69 µM | > 79 µM (inactive)
Nc1ncc([N+](=O)[O-])c(N2CCCCCC2)n1 | 2.28 µM | > 79 µM (inactive)
COc1ccc(-c2cnc(N)nc2-c2ccc(OC)cc2O)cc1 | 4.66 µM | 36.5 µM
CC(=O)Nc1ccc(-c2ccnc3c2CC(C(=O)NCc2ccccc2)O3)cc1 (configuration not stated) | > 79 µM (inactive) | > 79 µM (inactive)
FC(F)(F)c1nnc2c(Sc3ccccc3)nc3ccccc3n12 | 2.76 µM | 3.54 µM
COc1ccc(COC(=O)C2=C(C)NC(=O)NC2c2ccc(F)cc2)cc1 (configuration not stated) | 8.9 µM | 39.8 µM
C#CCN(C[C@@H]1[C@@H](OC(=O)NCc2ccco2)[C@@H](OC(=O)NCc2ccco2)Cn2c(=O)ccc(=O)n21)S(=O)(=O)c1ccc(C)cc1 | 3.11 µM | 18.3 µM
COc1ccc(CN2C[C@H]3CCCN3c3cc(Br)ccc3S2(=O)=O)cc1 | 9.73 µM | 61.7 µM (inactive)
Cc1ccc(S(=O)(=O)Nc2cccc3ncccc23)s1 | 1.48 µM | > 79 µM (inactive)
COc1cc(/C=C2\SC(=O)N(CCNC(=O)c3sc4cc(F)ccc4c3Cl)C2=O)cc(OC)c1OC | 7.99 µM | 11.3 µM
O=S(=O)(Nc1cccc2cccnc12)c1ccccc1 | 1.69 µM | 44.5 µM
CN(Cc1ccccc1)c1ncnc(N)c1[N+](=O)[O-] | 3.49 µM | 54.8 µM (inactive)
CC(=O)Oc1c(C(=O)c2nnc(C)o2)c(=O)n(Cc2ccccc2)c2ccccc12 | 2.36 µM | 14.9 µM
COc1ccc2[nH]c3c(c2c1)CCN1C(=O)C(CC(=O)NCCC2=CCCCC2)C[C@H](C(=O)N2CCCCC2)[C@@]31CCc1ccccc1 (some centres not stated) | 8.09 µM | 44.1 µM
CC(C)(C)OC(=O)NCC(=O)Oc1cc2oc(=O)cc(-c3ccccc3)c2cc1Cl | 1.2 µM | 15.3 µM
COc1ccc(-c2csc3ncnc(NCCO)c23)cc1 | 1.85 µM | 54 µM (inactive)
O=c1[nH]c(C2CCN(S(=O)(=O)c3ccc4c(c3)OCCO4)CC2)nc2c1nnn2Cc1c(F)cccc1Cl | 5.74 µM | 44.5 µM
O=C(Nc1ccc2c(c1)OCCO2)c1cc(-c2ccccn2)nc2ccc(Br)cc12 | inactive | 49.4 µM
Cc1cc2cc(CCNC(=O)C(=O)c3c[nH]c4ccccc34)c(=O)[nH]c2cc1C | 5.72 µM | 24.3 µM
O=S1(=O)CC=C(CSC(=S)NC2CCS(=O)(=O)C2)C1 (configuration not stated) | 3.05 µM | 
O=C1C=C(NC2=CC3OC(c4ccccc4)OCC3OC2=O)CCC1 (configuration not stated) | 3.74 µM | 
O=C(N/N=C/c1ccccc1Cl)c1[nH]c2ccc(Br)cc2c1-c1ccccc1 | 10.7 µM | 
